Reference: article PMC3914206

Legend:
panel of 442 kinases [1] = biological target: T1, panel of 442 kinases (Homo sapiens, UniProt Q9NRP7); type: binding; details: kinase STK36; compound concentration 10 µM
T1 construct: purchased KINOMEscan
T1 sequence (Q9NRP7 1-1315): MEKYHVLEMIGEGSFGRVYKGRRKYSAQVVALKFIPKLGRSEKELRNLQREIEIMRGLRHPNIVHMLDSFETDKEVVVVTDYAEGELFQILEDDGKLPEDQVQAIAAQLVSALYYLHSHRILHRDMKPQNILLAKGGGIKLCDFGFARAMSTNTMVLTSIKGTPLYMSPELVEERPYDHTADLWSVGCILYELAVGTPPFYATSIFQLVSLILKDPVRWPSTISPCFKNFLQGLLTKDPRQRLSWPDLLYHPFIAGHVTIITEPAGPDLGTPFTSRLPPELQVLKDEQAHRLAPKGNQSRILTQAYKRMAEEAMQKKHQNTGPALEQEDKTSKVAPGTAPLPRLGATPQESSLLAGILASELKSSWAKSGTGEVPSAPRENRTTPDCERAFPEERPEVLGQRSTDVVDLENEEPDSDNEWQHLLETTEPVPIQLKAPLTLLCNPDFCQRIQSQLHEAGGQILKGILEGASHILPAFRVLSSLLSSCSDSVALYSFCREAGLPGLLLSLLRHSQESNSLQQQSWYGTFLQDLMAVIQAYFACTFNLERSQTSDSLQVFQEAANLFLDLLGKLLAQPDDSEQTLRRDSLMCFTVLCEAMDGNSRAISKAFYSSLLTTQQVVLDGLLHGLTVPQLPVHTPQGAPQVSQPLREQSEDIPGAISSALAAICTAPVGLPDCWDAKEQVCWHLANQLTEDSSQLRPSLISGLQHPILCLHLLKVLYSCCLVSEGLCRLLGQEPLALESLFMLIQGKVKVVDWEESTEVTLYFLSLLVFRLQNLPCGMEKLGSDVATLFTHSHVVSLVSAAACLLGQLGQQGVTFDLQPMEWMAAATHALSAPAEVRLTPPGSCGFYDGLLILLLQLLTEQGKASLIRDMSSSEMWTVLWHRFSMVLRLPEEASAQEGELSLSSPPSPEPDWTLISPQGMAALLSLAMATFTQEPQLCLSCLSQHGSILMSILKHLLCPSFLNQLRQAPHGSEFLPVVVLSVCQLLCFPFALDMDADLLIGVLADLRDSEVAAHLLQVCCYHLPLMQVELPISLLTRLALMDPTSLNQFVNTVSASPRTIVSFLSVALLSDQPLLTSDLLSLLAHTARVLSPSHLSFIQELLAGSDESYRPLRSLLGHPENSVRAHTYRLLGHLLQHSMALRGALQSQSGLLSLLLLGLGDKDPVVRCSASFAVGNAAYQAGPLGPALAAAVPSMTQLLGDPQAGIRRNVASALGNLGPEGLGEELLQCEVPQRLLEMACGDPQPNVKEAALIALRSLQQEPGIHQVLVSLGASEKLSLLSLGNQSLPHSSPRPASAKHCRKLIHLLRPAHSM
Description: (§1) We assessed the selectivity of members of this scaffold using the KINOMEscan methodology across a near comprehensive panel of 442 kinases [[18,27]].

panel of 442 kinases [2] = biological target: T2, panel of 442 kinases (Homo sapiens, UniProt P41240); type: binding; details: Compound Concentration 10 µM
T2 construct: purchased KINOMEscan
Description: as §1

T2 sequence (P41240 whole entry): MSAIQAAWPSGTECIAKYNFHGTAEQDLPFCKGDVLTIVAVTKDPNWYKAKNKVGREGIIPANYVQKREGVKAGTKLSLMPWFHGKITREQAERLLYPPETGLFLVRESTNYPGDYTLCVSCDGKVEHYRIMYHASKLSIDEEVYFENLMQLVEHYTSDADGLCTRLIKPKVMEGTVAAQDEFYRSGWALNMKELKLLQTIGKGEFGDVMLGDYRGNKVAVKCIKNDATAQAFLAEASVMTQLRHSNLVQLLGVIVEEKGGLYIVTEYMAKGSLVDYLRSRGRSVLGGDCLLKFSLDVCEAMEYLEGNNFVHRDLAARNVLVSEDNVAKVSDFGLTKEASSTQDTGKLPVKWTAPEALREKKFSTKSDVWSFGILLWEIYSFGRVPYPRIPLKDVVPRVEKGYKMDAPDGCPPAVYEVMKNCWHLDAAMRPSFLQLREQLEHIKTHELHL

SMILES | % Ctrl, STK36 (panel of 442 kinases [1]) | KINOMEscan: CSK (panel of 442 kinases [2])
COc1cc(C(=O)N2CCC(N3CCN(C)CC3)CC2)ccc1Nc1ncc2c(n1)N(C1CCCC1)c1ccccc1C(=O)N2C [Compound 25, 11-cyclopentyl-2-((2-methoxy-4-(4-(4-methylpiperazin-1-yl)piperidine-1-carbonyl)phenyl)amino)-5-methyl-5H-benzo[e]pyrimido[5,4-b][1,4]diazepin-6(11H)-one] | 96 % Ctrl | 74
CCOc1cc(C(=O)N2CCC(N3CCN(C)CC3)CC2)ccc1Nc1ncc2c(n1)N(C1CCCC1)c1ccccc1C(=O)N2C [Compound 26] | 99 % Ctrl | 100
COc1cc(C(=O)N2CCC(N3CCN(C)CC3)CC2)ccc1Nc1ncc2c(n1)N1CCc3cccc(c31)C(=O)N2C [Compound 24] |  | 75
COc1cc(C(=O)N2CCC(N3CCN(C)CC3)CC2)ccc1Nc1ncc2c(n1)N(C)c1ccccc1C(=O)N2C [15 (LRRK2-IN-1)] | 97 % Ctrl | 90
